# Laboratory results: patent US20230265116A1, “DEGRADATION OF (EGFR) BY CONJUGATION OF EGFR INHIBITORS WITH E3 LIGASE LIGAND AND METHODS OF USE” (BEIGENE, LTD., priority 2020, published 2023)
# Read-outs that look alike come from different tables or passages of the source.
# How the values were obtained:
# [1] = target: T1, EGFR L858R/T790M/C797S (BaF3-LTC cells) (Homo sapiens, UniProt P00533, C797S/L858R/T790M); assay: EGFR degradation HTRF assay, BaF3-LTC cells; assay type: cell-based
# T1 construct: expressed in transfected cells; host or cells: BaF3
# Summary of the method: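 EGFR remaining after a 16 h, 37 °C exposure (8 doses, 5-fold steps from 10 uM final, 0.2% DMSO) was quantified by HTRF antibodies in cell lysate. Percent inhibition relative to DMSO control was fitted by four-parameter logistic to give DC50; Dmax denotes maximal degradation.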
# [2] = test system: EGFR Del19/T790M/C797S (H1975-clone #28); assay: EGFR degradation HTRF assay, H1975-clone #28 DTC cells; assay type: cell-based
# Summary of the method: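 Engineered H1975 lines (lentiviral mutant EGFR, endogenous EGFR knocked out, single-clone verified); 16h compound, 37° C., 5% CO2, 0.2% DMSO; 8-point 5-fold series from 10 uM final. HTRF lysate read; % degradation vs DMSO, four-parameter fit → DC50, Dmax.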
# [3] = BaF3-LTC cells; EGFR degradation, IC50 (DC50) from curve fit; read-out: DC50(nM) BaF3-LTC
# [4] = H1975 # 28 DTC cells; maximum percentage of inhibition (degradation)
# [5] = read-out: DC50(nM) H1975 # 28 DTC; H1975 # 28 DTC cells; EGFR degradation, IC50 (DC50) from curve fit
# [6] = BaF3-LTC cells; maximum percentage of inhibition (degradation); read-out: Dmax (%) BaF3-LTC
# [7] = H1975 # 28 DTC cells; EGFR degradation, IC50 (DC50) from curve fit; read-out: DC50(nM) H1975 # 28 DTC
# T1 sequence (P00533 25-1210 T790M/C797S/L858R): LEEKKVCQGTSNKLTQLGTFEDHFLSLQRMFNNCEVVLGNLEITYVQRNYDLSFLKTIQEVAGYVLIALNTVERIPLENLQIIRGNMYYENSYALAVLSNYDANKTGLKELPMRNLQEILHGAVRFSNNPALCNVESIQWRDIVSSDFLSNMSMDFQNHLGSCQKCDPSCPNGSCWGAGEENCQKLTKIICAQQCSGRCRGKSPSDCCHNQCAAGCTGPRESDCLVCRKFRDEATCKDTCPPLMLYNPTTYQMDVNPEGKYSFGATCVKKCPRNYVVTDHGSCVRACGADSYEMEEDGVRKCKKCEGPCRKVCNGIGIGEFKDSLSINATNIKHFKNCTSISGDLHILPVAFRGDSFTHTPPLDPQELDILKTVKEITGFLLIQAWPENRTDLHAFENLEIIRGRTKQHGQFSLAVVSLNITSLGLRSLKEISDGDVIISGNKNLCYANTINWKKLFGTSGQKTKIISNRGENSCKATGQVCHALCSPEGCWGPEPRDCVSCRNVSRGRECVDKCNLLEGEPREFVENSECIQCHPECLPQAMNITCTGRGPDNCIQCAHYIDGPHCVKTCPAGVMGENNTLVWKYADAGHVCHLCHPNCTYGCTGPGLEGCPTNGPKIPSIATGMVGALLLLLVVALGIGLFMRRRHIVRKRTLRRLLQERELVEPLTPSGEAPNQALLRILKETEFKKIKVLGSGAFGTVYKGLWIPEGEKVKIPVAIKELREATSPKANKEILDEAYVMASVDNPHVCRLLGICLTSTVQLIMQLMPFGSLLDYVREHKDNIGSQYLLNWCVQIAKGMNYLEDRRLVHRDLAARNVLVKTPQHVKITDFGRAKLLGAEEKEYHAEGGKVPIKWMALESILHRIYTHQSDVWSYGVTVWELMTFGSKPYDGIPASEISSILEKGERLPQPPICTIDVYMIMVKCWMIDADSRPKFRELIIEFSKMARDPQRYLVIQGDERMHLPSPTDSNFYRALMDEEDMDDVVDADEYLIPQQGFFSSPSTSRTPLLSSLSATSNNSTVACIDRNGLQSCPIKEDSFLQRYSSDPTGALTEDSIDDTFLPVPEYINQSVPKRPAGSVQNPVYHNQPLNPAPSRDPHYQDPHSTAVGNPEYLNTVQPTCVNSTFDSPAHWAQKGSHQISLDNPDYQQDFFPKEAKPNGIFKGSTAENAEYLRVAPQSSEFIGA
Structure (SMILES),"DC50 [1, 3] [nM]","Dmax [1, 6] [%]","DC50 [2, 7] [nM]","Dmax (%) H1975 # 28 DTC [2, 4] [%]","DC50 [2, 5] [nM]","DC50 ([1]; read-out: DC50(nM) BaF3-LTC; BaF3-LTC cells; EGFR degradation, IC50 (DC50) from curve fit) [nM]","Dmax ([1]; read-out: Dmax (%) BaF3-LTC, BaF3-LTC cells; maximum percentage of inhibition (degradation)) [%]"
"CCOc1cc(N2CCC(N3CCN(CC4CN(c5cccc6c5oc(=O)n6C5CCC(=O)NC5=O)C4)CC3)CC2)c(CC)cc1Nc1ncc(Br)c(Nc2ccc3nc(CC)ncc3c2P(C)(C)=O)n1 (stereo not shown) [Example 566, 3-(7-(3-((4-(1-(4-((5-bromo-4-((5-(dimethylphosphoryl)-2-ethylquinazolin-6-yl)amino)pyrimidin-2-yl)amino)-5-ethoxy-2-ethylphenyl)piperidin-4-yl)piperazin-1-yl)methyl)azetidin-1-yl)-2-oxobenzo[d]oxazol-3(2H)-yl)piperidine-2,6-dione]",5.25,–,–,84.02,0.616,–,–
"CCOc1cc(N2CCC(N3CCN(CCc4cc5oc(=O)n(C6CCC(=O)NC6=O)c5cc4F)CC3)CC2)c(CC)cc1Nc1ncc(Br)c(Nc2ccc3nc(CC)ncc3c2P(C)(C)=O)n1 (stereo not shown) [Example 565, 3-(6-(2-(4-(1-(4-((5-bromo-4-((5-(dimethylphosphoryl)-2-ethylquinazolin-6-yl)amino)pyrimidin-2-yl)amino)-5-ethoxy-2-ethylphenyl)piperidin-4-yl)piperazin-1-yl)ethyl)-5-fluoro-2-oxobenzo[d]oxazol-3(2H)-yl)piperidine-2,6-dione]",–,–,–,74.32,0.626,3.92,93.2
"CCOc1cc(N2CCC(N3CCN(CCc4c(F)ccc5c4oc(=O)n5C4CCC(=O)NC4=O)CC3)CC2)c(CC)cc1Nc1ncc(Br)c(Nc2ccc3nc(CC)ccc3c2P(C)(C)=O)n1 (stereo not shown) [Example 471, 3-(7-(2-(4-(1-(4-((5-bromo-4-((5-(dimethylphosphoryl)-2-ethylquinolin-6-yl)amino)pyrimidin-2-yl)amino)-5-ethoxy-2-ethylphenyl)piperidin-4-yl)piperazin-1-yl)ethyl)-6-fluoro-2-oxobenzo[d]oxazol-3(2H)-yl)piperidine-2_6-dione]",36,83.9,1.98,73.66,–,–,–
"CCc1ccc2c(P(C)(C)=O)c(Nc3nc(Nc4cc(CC)c(N5CCC(N6CCN(CC[C@H]7CCN(c8cc(F)c(C9CCC(=O)NC9=O)c(F)c8)C7)CC6)CC5)cc4OC)ncc3Br)ccc2n1 (stereo partly drawn) [Example 650, 3-(4-((S)-3-(2-(4-(1-(4-((5-bromo-4-((5-(dimethylphosphoryl)-2-ethylquinolin-6-yl)amino)pyrimidin-2-yl)amino)-2-ethyl-5-methoxyphenyl)piperidin-4-yl)piperazin-1-yl)ethyl)pyrrolidin-1-yl)-2,6-difluorophenyl)piperidine-2,6-dione]",16,75,3.39,59.93,–,–,–
"CCOc1cc(N2CCC(N3CCN(CC4CN(c5cc(F)cc6c5n(C)c(=O)n6C5CCC(=O)NC5=O)C4)CC3)CC2)c(CC)cc1Nc1ncc(Br)c(Nc2ccc3nc(CC)ccc3c2P(C)(C)=O)n1 (stereo not shown) [Example 467, 3-(4-(3-((4-(1-(4-((5-bromo-4-((5-(dimethylphosphoryl)-2-ethylquinolin-6-yl)amino)pyrimidin-2-yl)amino)-5-ethoxy-2-ethylphenyl)piperidin-4-yl)piperazin-1-yl)methyl)azetidin-1-yl)-6-fluoro-3-methyl-2-oxo-2,3-dihydro-1H-benzo[d]imidazol-1-yl)piperidine-2,6-dione]",12.5,91.3,1.83,76.06,–,–,–
"CCOc1cc(N2CCC(N3CCN(CCc4c(F)cc5c(oc(=O)n5C5CCC(=O)NC5=O)c4F)CC3)CC2)c(CC)cc1Nc1ncc(Br)c(Nc2ccc3nc(CC)ccc3c2P(C)(C)=O)n1 (stereo not shown) [Example 635, 3-(6-(2-(4-(1-(4-((5-bromo-4-((5-(dimethylphosphoryl)-2-ethylquinolin-6-yl)amino)pyrimidin-2-yl)amino)-5-ethoxy-2-ethylphenyl)piperidin-4-yl)piperazin-1-yl)ethyl)-5,7-difluoro-2-oxobenzo[d]oxazol-3(2H)-yl)piperidine-2,6-dione]",11,90.7,1.37,77.57,–,–,–
"COc1cc(N2CCC(N3CCN(C(=O)[C@H]4CCN(c5cc(F)c(C6CCC(=O)NC6=O)c(F)c5)C4)CC3)CC2)c(C)cc1Nc1ncc(Br)c(Nc2ccc3c(=O)n(C)ncc3c2P(C)(C)=O)n1 (stereo partly drawn) [Example 513, 3-(4-((S)-3-(4-(1-(4-((5-bromo-4-((5-(dimethylphosphoryl)-2-methyl-1-oxo-1,2-dihydrophthalazin-6-yl)amino)pyrimidin-2-yl)amino)-5-methoxy-2-methylphenyl)piperidin-4-yl)piperazine-1-carbonyl)pyrrolidin-1-yl)-2,6-difluorophenyl)piperidine-2,6-dione]",10.2,85.2,1.37,78.24,–,–,–
"CCOc1cc(N2CCC(N3CCN(CC4CCN(c5cc(F)cc6c5oc(=O)n6C5CCC(=O)NC5=O)CC4)CC3)CC2)c(CC)cc1Nc1ncc(Br)c(Nc2ccc3nc(CC)ccc3c2P(C)(C)=O)n1 (stereo not shown) [Example 621, 3-(7-(4-((4-(1-(4-((5-bromo-4-((5-(dimethylphosphoryl)-2-ethylquinolin-6-yl)amino)pyrimidin-2-yl)amino)-5-ethoxy-2-ethylphenyl)piperidin-4-yl)piperazin-1-yl)methyl)piperidin-1-yl)-5-fluoro-2-oxobenzo[d]oxazol-3(2H)-yl)piperidine-2,6-dione]",15,93.9,1.61,77.44,–,–,–
"CCc1cc(Nc2ncc(Br)c(Nc3ccc4nc(C5CC5)ccc4c3P(C)(C)=O)n2)c(OC)cc1N1CCC(N2CCN(CCc3cc(F)c([C@H]4CCC(=O)NC4=O)c(F)c3)CC2)CC1 [Example 741, (R)-3-(4-(2-(4-(1-(4-((5-bromo-4-((2-cyclopropyl-5-(dimethylphosphoryl)quinolin-6-yl)amino)pyrimidin-2-yl)amino)-2-ethyl-5-methoxyphenyl)piperidin-4-yl)piperazin-1-yl)ethyl)-2,6-difluorophenyl)piperidine-2,6-dione]",11.2,–,0.761,80.67,–,–,–

# More lines, in order of falling DC50 [1, 3], values ahead:
"DC50 [1, 3] [nM]","Dmax [1, 6] [%]","DC50 [2, 7] [nM]",Structure (SMILES),"Dmax (%) H1975 # 28 DTC [2, 4] [%]","DC50 [2, 5] [nM]","DC50 ([1]; read-out: DC50(nM) BaF3-LTC; BaF3-LTC cells; EGFR degradation, IC50 (DC50) from curve fit) [nM]","Dmax ([1]; read-out: Dmax (%) BaF3-LTC, BaF3-LTC cells; maximum percentage of inhibition (degradation)) [%]"
7.36,94.5,1.89,"CCOc1cc(N2CCC(N3CCN(CCc4ccc5c(oc(=O)n5C5CCC(=O)NC5=O)c4F)CC3)CC2)c(CC)cc1Nc1ncc(Br)c(Nc2ccc3nc(CC)ccc3c2P(C)(C)=O)n1 (stereo not shown) [Example 555, 3-(6-(2-(4-(1-(4-((5-bromo-4-((5-(dimethylphosphoryl)-2-ethylquinolin-6-yl)amino)pyrimidin-2-yl)amino)-5-ethoxy-2-ethylphenyl)piperidin-4-yl)piperazin-1-yl)ethyl)-7-fluoro-2-oxobenzo[d]oxazol-3(2H)-yl)piperidine-2,6-dione]",77.45,–,–,–
6.28,79.4,1.19,"CCc1ccc2c(P(C)(C)=O)c(Nc3nc(Nc4cc(CC)c(N5CCC(N6CCN(CCc7c(F)ccc8c7oc(=O)n8C7CCC(=O)NC7=O)CC6)CC5)cc4OC)ncc3Br)ccc2n1 (stereo not shown) [Example 444, 3-(7-(2-(4-(1-(4-((5-bromo-4-((5-(dimethylphosphoryl)-2-ethylquinolin-6-yl)amino)pyrimidin-2-yl)amino)-2-ethyl-5-methoxyphenyl)piperidin-4-yl)piperazin-1-yl)ethyl)-6-fluoro-2-oxobenzo[d]oxazol-3(2H)-yl)piperidine-2,6-dione]",79.58,–,–,–
5.59,–,1.13,"COc1cc(N2CCC(N3CCN(C(=O)[C@H]4CN(c5cc(F)c([C@H]6CCC(=O)NC6=O)c(F)c5)CC4(C)C)CC3)CC2)c(C)cc1Nc1ncc(Br)c(Nc2ccc3nc(C)c(F)cc3c2P(C)(C)=O)n1 [Example 729, (R)-3-(4-((R)-4-(4-(1-(4-((5-bromo-4-((5-(dimethylphosphoryl)-3-fluoro-2-methylquinolin-6-yl)amino)pyrimidin-2-yl)amino)-5-methoxy-2-methylphenyl)piperidin-4-yl)piperazine-1-carbonyl)-3,3-dimethylpyrrolidin-1-yl)-2,6-difluorophenyl)piperidine-2,6-dione]",88.94,–,–,–
5.43,91,0.711,"CCOc1cc(N2CCC(N3CCN(CCc4cc5oc(=O)n(C6CCC(=O)NC6=O)c5cc4Cl)CC3)CC2)c(CC)cc1Nc1ncc(Br)c(Nc2ccc3c(=O)n(CC)ncc3c2P(C)(C)=O)n1 (stereo not shown) [Example 626, 3-(6-(2-(4-(1-(4-((5-bromo-4-((5-(dimethylphosphoryl)-2-ethyl-1-oxo-1,2-dihydrophthalazin-6-yl)amino)pyrimidin-2-yl)amino)-5-ethoxy-2-ethylphenyl)piperidin-4-yl)piperazin-1-yl)ethyl)-5-chloro-2-oxobenzo[d]oxazol-3(2H)-yl)piperidine-2,6-dione]",76.73,–,–,–
